Test results taken from article PMC12669672, “Structural insights into selective and dual antagonism of EP2 and EP4 prostaglandin receptors” (The EMBO Journal, 2025).
“And” between values parts separate entries of the source, which are not always exact repeats. Equal values may be shown once. “Also recorded” adds a separate entry of the source. Read-outs that look alike come from different tables or passages of the source.

How the values were obtained:
Assay in all cases: GloSensor cAMP assay, antagonism of PGE2-induced cAMP
Type in all cases: cell-based
EP4 V72A = target: T1, EP4 V72A (Homo sapiens, UniProt P35408, V72A); conditions: for cAMP activity (∆pIC50 from EP4 WT): Grapiprant, V72A; for ΔpIC50: PGE2 0.5 nM, pIC50 mutant - pIC50 WT, mean
T1 construct: The full-length EP2 or EP4 was cloned into the pcDNA3.1 vector; FLAG (N); expressed in transfected cells; host or cells: AD293 cells
Experimental: (§1) The full-length EP2 or EP4 was cloned into the pcDNA3.1 vector (Invitrogen), incorporating an N-terminal FLAG tag. AD293 cells were seeded in six-well plates containing DMEM supplemented with 10% dialyzed FBS 1 day prior to transfection. Following overnight growth, cells were transfected with a 1:1 ratio of receptor construct and GloSensor22F cAMP biosensor (Promega) plasmids.
(§2) Twenty-four hours post-transfection, the cells were transferred to CO2-independent media containing 2% GloSensor cAMP Reagent (Promega) and distributed into 384-well assay plates at a density of 4000 cells per well in 10 μL. […] The plates were then incubated at 37 °C for an additional hour before luminescence measurements were taken using an EnVision plate reader.
(§3) Data analysis was performed using GraphPad Prism software v8.0.1. A nonlinear regression analysis, employing a sigmoidal dose–response model, was conducted to determine the Emax values and half-maximum inhibitory concentrations (IC50) for each compound tested.

EP4 WT = target: T2, EP4 WT (Homo sapiens, UniProt P35408); conditions: for remaining activity at 10 µM / remaining activity at 1 µM / remaining activity at 0.1 µM / remaining activity at 0.01 µM / remaining activity at 0.001 µM / remaining activity at 0.0001 µM / remaining activity at 10 pM / remaining activity at 1 pM: 1 h; for remaining activity at 0.1 µM: Grapiprant log([M]) -7
T2 construct: The full-length EP2 or EP4 was cloned into the pcDNA3.1 vector; FLAG (N); expressed in transfected cells; host or cells: AD293 cells
Experimental: as §1, §2, §3

EP4 V320A = target: T3, EP4 V320A (Homo sapiens, UniProt P35408, V320A); conditions: for ΔpIC50: PGE2 0.5 nM, pIC50 mutant - pIC50 WT, mean
T3 construct: The full-length EP2 or EP4 was cloned into the pcDNA3.1 vector (Invitrogen), incorporating an N-terminal FLAG tag; expressed in transfected cells; host or cells: AD293
Experimental: as §1, §2, §3

EP4 S319A = target: T4, EP4 S319A (Homo sapiens, UniProt P35408, S319A); conditions: for cAMP activity (∆pIC50 from EP4 WT): Grapiprant, S319A; for ΔpIC50: PGE2 0.5 nM, pIC50 mutant - pIC50 WT, mean
T4 construct: The full-length EP2 or EP4 was cloned into the pcDNA3.1 vector (Invitrogen), incorporating an N-terminal FLAG tag; expressed in transfected cells; host or cells: AD293
Experimental: as §1, §2, §3

EP2 WT = EP2 WT (Homo sapiens, UniProt P43116); design: The full-length EP2 or EP4 was cloned into the pcDNA3.1 vector; FLAG (N); expressed in transfected cells; host or cells: AD293 cells; conditions: 1 h, single experiments 1st-3rd, Fig. S1A
Experimental: as §1, §2, §3

[1] = 1 h, Grapiprant log([M]) -7, read-out: % cAMP activity (normalized to WT)
[2] = 1 h, Grapiprant log([M]) -8, read-out: % cAMP activity (normalized to WT)
[3] = 1 h, Grapiprant log([M]) -9, read-out: % cAMP activity (normalized to WT)
[4] = 1 h, Grapiprant log([M]) -10, read-out: % cAMP activity (normalized to WT)
[5] = 1 h, Grapiprant log([M]) -11, read-out: % cAMP activity (normalized to WT)
[6] = 1 h, Grapiprant log([M]) -12, read-out: % cAMP activity (normalized to WT)

T2 sequence (P35408 whole entry): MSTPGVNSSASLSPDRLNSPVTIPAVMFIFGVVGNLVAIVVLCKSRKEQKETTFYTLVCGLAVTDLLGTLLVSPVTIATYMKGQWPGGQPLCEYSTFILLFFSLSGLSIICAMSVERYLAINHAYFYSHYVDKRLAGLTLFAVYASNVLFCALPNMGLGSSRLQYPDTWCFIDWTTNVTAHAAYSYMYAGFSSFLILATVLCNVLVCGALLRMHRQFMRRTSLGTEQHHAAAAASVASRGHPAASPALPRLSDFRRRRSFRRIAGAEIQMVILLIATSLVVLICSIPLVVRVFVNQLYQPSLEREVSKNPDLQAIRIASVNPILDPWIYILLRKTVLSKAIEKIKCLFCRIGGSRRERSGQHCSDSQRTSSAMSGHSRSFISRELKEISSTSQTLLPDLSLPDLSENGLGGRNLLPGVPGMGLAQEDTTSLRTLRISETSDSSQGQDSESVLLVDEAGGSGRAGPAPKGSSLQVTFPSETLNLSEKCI
T3 sequence (P35408 whole entry V320A): as the sequence (P35408 whole entry) above, with V320A counted along it
T4 sequence (P35408 whole entry S319A): as the sequence (P35408 whole entry) above, with S319A counted along it
T1 sequence (P35408 whole entry V72A): as the sequence (P35408 whole entry) above, with V72A counted along it
EP2 WT, sequence (P43116 whole entry): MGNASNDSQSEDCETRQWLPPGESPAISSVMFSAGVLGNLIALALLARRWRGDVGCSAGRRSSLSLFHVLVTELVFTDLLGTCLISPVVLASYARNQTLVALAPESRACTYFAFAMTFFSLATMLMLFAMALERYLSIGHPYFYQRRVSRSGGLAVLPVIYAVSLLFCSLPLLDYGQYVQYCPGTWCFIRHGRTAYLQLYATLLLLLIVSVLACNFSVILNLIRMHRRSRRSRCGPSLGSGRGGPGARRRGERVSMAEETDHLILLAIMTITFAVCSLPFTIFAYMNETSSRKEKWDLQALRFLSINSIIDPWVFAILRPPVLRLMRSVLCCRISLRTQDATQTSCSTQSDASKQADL

For `CCc1nc2c(C)nc(C)cc2n1-c1ccc(CCNC(=O)NS(=O)(=O)c2ccc(C)cc2)cc1` [Grapiprant], the IC50 (EP4 V72A) was 110 nM, the remaining activity at 0.1 µM (EP4 V72A; [1]) was 25.9% and the remaining activity at 0.01 µM (EP4 V72A; [2]) was 35.8%. It also gave a remaining activity at 0.001 µM (EP4 V72A; [3]) of 45%, a remaining activity at 0.0001 µM (EP4 V72A; [4]) of 46.7% and a remaining activity at 10 pM (EP4 V72A; [5]) of 54.1%. The remaining activity at 1 pM (EP4 V72A; [6]) was 41%, the “cAMP activity (∆pIC50 from EP4 WT)” value (EP4 V72A; Mean) was -0.294 and the “cAMP activity (∆pIC50 from EP4 WT)” value (EP4 V72A; single experiments 1st-3rd) was -0.217 and -0.413 and -0.252. For the same compound, the ΔpIC50 (EP4 V72A) was -0.29 ± 0.06, the ΔpIC50 (EP4 V72A; listed as grapiprant) was “reduced the potency” and the IC50 (EP4 WT) was 35.5 nM. The remaining activity at 10 µM (EP4 WT; Grapiprant log([M]) -5, read-out: % cAMP activity (normalized to WT)) was 2.75%, the remaining activity at 1 µM (EP4 WT; Grapiprant log([M]) -6, read-out: % cAMP activity (normalized to WT)) was 3.71% and the remaining activity at 0.1 µM (EP4 WT; read-out: % cAMP activity (normalized to WT)) was 21%. For the same compound, the remaining activity at 0.1 µM (EP4 WT; single experiments 1st-3rd, Fig. S7C, read-out: % cAMP activity (normalized to WT)) was 30.1%, the remaining activity at 0.01 µM (EP4 WT; Grapiprant log([M]) -8, read-out: % cAMP activity (normalized to WT)) was 83.1% and the remaining activity at 0.01 µM (EP4 WT; Grapiprant log([M]) -8, single experiments 1st-3rd, Fig. S7C, read-out: % cAMP activity (normalized to WT)) was 88.1%. It also gave a remaining activity at 0.001 µM (EP4 WT; Grapiprant log([M]) -9, read-out: % cAMP activity (normalized to WT)) of 96.3%, a remaining activity at 0.0001 µM (EP4 WT; Grapiprant log([M]) -10, read-out: % cAMP activity (normalized to WT)) of 90.2% and a remaining activity at 0.0001 µM (EP4 WT; Grapiprant log([M]) -10, single experiments 1st-3rd, Fig. S7C, read-out: % cAMP activity (normalized to WT)) of 96.7%. For the same compound, the remaining activity at 10 pM (EP4 WT; Grapiprant log([M]) -11, read-out: % cAMP activity (normalized to WT)) was 97.9%, the remaining activity at 10 pM (EP4 WT; Grapiprant log([M]) -11, single experiments 1st-3rd, Fig. S7C, read-out: % cAMP activity (normalized to WT)) was 101% and the remaining activity at 1 pM (EP4 WT; Grapiprant log([M]) -12, read-out: % cAMP activity (normalized to WT)) was 103%. The remaining activity at 1 pM (EP4 WT; Grapiprant log([M]) -12, single experiments 1st-3rd, Fig. S7C, read-out: % cAMP activity (normalized to WT)) was 93.3%, the remaining activity at 10 µM (EP4 WT; read-out: % cAMP activity EP4 (normalized to Grapiprant), ligand log([M]) -5, single experiments 1st-3rd, Fig. S1A) was 2.69% and the remaining activity at 1 µM (EP4 WT; read-out: % cAMP activity EP4 (normalized to Grapiprant), ligand log([M]) -6, single experiments 1st-3rd, Fig. S1A) was 5.1%. The remaining activity at 0.01 µM (EP4 WT; read-out: % cAMP activity EP4 (normalized to Grapiprant), ligand log([M]) -8, single experiments 1st-3rd, Fig. S1A) was 94.2%, the remaining activity at 0.001 µM (EP4 WT; read-out: % cAMP activity EP4 (normalized to Grapiprant), ligand log([M]) -9, single experiments 1st-3rd, Fig. S1A) was 97% and the remaining activity at 0.0001 µM (EP4 WT; read-out: % cAMP activity EP4 (normalized to Grapiprant), ligand log([M]) -10, single experiments 1st-3rd, Fig. S1A) was 100%. For the same compound, the remaining activity at 10 pM (EP4 WT; read-out: % cAMP activity EP4 (normalized to Grapiprant), ligand log([M]) -11, single experiments 1st-3rd, Fig. S1A) was 93.5%, the remaining activity at 1 pM (EP4 WT; read-out: % cAMP activity EP4 (normalized to Grapiprant), ligand log([M]) -12, single experiments 1st-3rd, Fig. S1A) was 102% and the “cAMP activity (∆pIC50 from EP4 WT)” value (EP4 WT; Grapiprant, WT, single experiments 1st-3rd) was 0.1372 and 0.1162 and -0.1508. The “antagonism profile EP4 versus EP2 (in words)” value (EP4 WT; cAMP accumulation assay upon PGE2 stimulation, Appendix Fig. S1A) was “selective antagonists of EP2 and EP4, respectively; also recorded: strong selectivity”, the IC50 (EP4 V320A) was 339 nM and the remaining activity at 0.0001 µM (EP4 V320A; [4]) was 39.6%. The “cAMP activity (∆pIC50 from EP4 WT)” value (EP4 V320A; Grapiprant, V320A, Mean) was -0.775, the ΔpIC50 (EP4 V320A) was -0.78 ± 0.12 and the ΔpIC50 (EP4 V320A; listed as grapiprant) was “reduced the potency”. The IC50 (EP4 S319A) was 186 nM, the remaining activity at 10 µM (EP4 S319A; 1 h, Grapiprant log([M]) -5, read-out: % cAMP activity (normalized to WT)) was 3.59% and the remaining activity at 1 µM (EP4 S319A; 1 h, Grapiprant log([M]) -6, read-out: % cAMP activity (normalized to WT)) was 3.85%. The remaining activity at 0.1 µM (EP4 S319A; [1]) was 22.9%, the remaining activity at 0.01 µM (EP4 S319A; [2]) was 31.9% and the remaining activity at 0.001 µM (EP4 S319A; [3]) was 32.1%. It also gave a remaining activity at 0.0001 µM (EP4 S319A; [4]) of 27.9%, a remaining activity at 10 pM (EP4 S319A; [5]) of 33% and a remaining activity at 1 pM (EP4 S319A; [6]) of 28.4%. The “cAMP activity (∆pIC50 from EP4 WT)” value (EP4 S319A; Mean) was -0.645, the “cAMP activity (∆pIC50 from EP4 WT)” value (EP4 S319A; single experiments 1st-3rd) was -0.523 and -0.642 and -0.769 and the ΔpIC50 (EP4 S319A) was -0.64 ± 0.07. The ΔpIC50 (EP4 S319A; listed as grapiprant) was “reduced the potency”, the remaining activity at 10 µM (EP2 WT; read-out: % cAMP activity on EP2 (normalized to PF-04418948), ligand log([M]) -5) was 90.7% and the remaining activity at 1 µM (EP2 WT; read-out: % cAMP activity on EP2 (normalized to PF-04418948), ligand log([M]) -6) was 105%. For the same compound, the remaining activity at 0.1 µM (EP2 WT; read-out: % cAMP activity on EP2 (normalized to PF-04418948), ligand log([M]) -7) was 107%, the remaining activity at 0.01 µM (EP2 WT; read-out: % cAMP activity on EP2 (normalized to PF-04418948), ligand log([M]) -8) was 113% and the remaining activity at 0.001 µM (EP2 WT; read-out: % cAMP activity on EP2 (normalized to PF-04418948), ligand log([M]) -9) was 115%. The remaining activity at 0.0001 µM (EP2 WT; read-out: % cAMP activity on EP2 (normalized to PF-04418948), ligand log([M]) -10) was 114%, the remaining activity at 10 pM (EP2 WT; read-out: % cAMP activity on EP2 (normalized to PF-04418948), ligand log([M]) -11) was 120% and the remaining activity at 1 pM (EP2 WT; read-out: % cAMP activity on EP2 (normalized to PF-04418948), ligand log([M]) -12) was 107%.
